Reference: ChEMBL document CHEMBL2040787, “Synthesis and carbonic anhydrase inhibitory properties of novel bromophenols and their derivatives including natural products: vidalol B” (Eur J Med Chem, 2012)

Legend:
Carbonic anhydrase 1 = Carbonic anhydrase 1 (Homo sapiens, UniProt P00915); assay: Noncompetitive inhibition of human CA1 using 4NPA as substrate for 3 mins by Lineweaver burk plot analysis
Carbonic anhydrase 6 = Carbonic anhydrase 6 (Homo sapiens, UniProt P23280); assay: Inhibition of human CA6 using 4NPA as substrate for 3 mins by Lineweaver burk plot analysis
Carbonic anhydrase 2 = Carbonic anhydrase 2 (Homo sapiens, UniProt P00918); assay: Inhibition of human CA2 using 4NPA as substrate for 3 mins by Lineweaver burk plot analysis
Carbonic anhydrase 4 = Carbonic anhydrase 4 (Homo sapiens, UniProt P22748); assay: Inhibition of human CA4 using 4NPA as substrate for 3 mins by Lineweaver burk plot analysis
Chain of Carbonic anhydrase 4 (P22748 whole entry): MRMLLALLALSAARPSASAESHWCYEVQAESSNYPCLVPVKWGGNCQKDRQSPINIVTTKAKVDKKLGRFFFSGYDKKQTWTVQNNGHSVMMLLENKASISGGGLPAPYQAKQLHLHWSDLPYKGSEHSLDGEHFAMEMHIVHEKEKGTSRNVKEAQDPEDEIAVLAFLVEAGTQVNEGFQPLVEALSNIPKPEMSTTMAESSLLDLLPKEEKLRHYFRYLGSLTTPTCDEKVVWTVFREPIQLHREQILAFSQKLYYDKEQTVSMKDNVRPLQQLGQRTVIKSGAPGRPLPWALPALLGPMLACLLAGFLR

Chain of Carbonic anhydrase 1 (P00915 whole entry): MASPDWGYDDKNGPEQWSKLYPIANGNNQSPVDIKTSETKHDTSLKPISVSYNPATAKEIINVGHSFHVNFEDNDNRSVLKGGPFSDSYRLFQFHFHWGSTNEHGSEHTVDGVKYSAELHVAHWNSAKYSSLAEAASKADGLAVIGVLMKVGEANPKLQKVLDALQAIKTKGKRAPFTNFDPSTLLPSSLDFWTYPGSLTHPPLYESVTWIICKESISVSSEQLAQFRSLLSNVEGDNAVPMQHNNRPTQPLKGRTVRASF
Chain of Carbonic anhydrase 6 (P23280 whole entry): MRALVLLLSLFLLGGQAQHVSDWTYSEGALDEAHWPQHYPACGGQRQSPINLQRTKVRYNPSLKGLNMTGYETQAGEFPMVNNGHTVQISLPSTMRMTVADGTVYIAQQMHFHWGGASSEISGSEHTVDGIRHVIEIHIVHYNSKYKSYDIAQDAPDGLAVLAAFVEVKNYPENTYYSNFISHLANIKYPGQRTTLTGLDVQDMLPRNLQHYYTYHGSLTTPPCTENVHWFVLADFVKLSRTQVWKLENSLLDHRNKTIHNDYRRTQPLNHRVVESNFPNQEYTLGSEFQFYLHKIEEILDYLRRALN

| SMILES | Ki (Carbonic anhydrase 1) | Ki (Carbonic anhydrase 6) | Ki (Carbonic anhydrase 2) | Ki (Carbonic anhydrase 4) |
| --- | --- | --- | --- | --- |
| COc1ccccc1 [ANISOLE] |  | 235 µM |  |  |
| COc1ccc(Cc2ccc(OC)c(OC)c2)cc1OC | 537 µM | 382 µM | 59.1 µM | 145 µM |
| O=C(O)c1ccc(O)c(O)c1 [PROTOCATECHUIC ACID] |  |  |  | 2.45 µM |
| COc1ccc(C(=O)O)cc1OC [VERATRIC ACID] |  | 24.4 µM |  | 6.48 µM |

The remaining lines, values ahead:

| Ki (Carbonic anhydrase 1) | Ki (Carbonic anhydrase 6) | Ki (Carbonic anhydrase 2) | Ki (Carbonic anhydrase 4) | SMILES |
| --- | --- | --- | --- | --- |
| 43.5 µM | 29.7 µM | 35.5 µM | 32.7 µM | COc1c(Br)c(Br)c(Cc2c(Br)c(Br)c(OC)c(OC)c2Br)c(Br)c1OC |
| 18.4 µM | 13.7 µM | 5.64 µM | 7.64 µM | Oc1ccc(Cc2ccc(O)c(O)c2)cc1O |
